The results in this text go back to ChEMBL document CHEMBL3739373, “1,2,3-Triazole derivatives as antitubercular agents: synthesis, biological evaluation and molecular docking study” (Medchemcomm, 2015).

Molecules are shown by their SMILES. Values after ≈ are worked out from the molar mass of the structure shown. A value given as a limit tells only on which side of the number the result lay.

Data set [1] in a line: Cytotoxicity against human PANC1 cells assessed as growth inhibition after 48 hrs by MTT assay. Type of data set: cell-based, PANC-1. The note with it: for GI50 at 48 h: PANC1 cells; for GI90: panc-1, 48 h.
The nature of data set [2]: Selectivity index, ratio of GI50 for human THP1 cells to MIC for dormant phase Mycobacterium tuberculosis H37Ra ATCC 25177. Format: toxicity, cell-based, THP-1. The note with it: read-out: Selectivity Index.
The nature of data set [3]: Cytotoxicity against human THP1 cells assessed as growth inhibition after 48 hrs by MTT assay. Type of data set: cell-based, THP-1. The note with it: for GI50 at 48 h: THP1 cells; for GI90: thp-1, 48 h.
For data set [4], the system named is Mycobacterium tuberculosis. The data set is described as follows: Antitubercular activity against dormant phase Mycobacterium tuberculosis H37Ra ATCC 25177 incubated for 12 days by XTT reduction menadione assay. Type of data set: functional, organism-based. The note with it: 288 h.
A short description of data set [5]: Selectivity index, ratio of GI50 for human PANC1 cells to MIC for dormant phase Mycobacterium tuberculosis H37Ra ATCC 25177. The note with it: read-out: Selectivity Index. Type of data set: toxicity, cell-based, PANC-1.
Data set [6] in a line: Antioxidant activity assessed as DPPH radical scavenging activity after 30 mins by spectrophotometric analysis. Format: physicochemical.
The subject of the next data set is A549. Briefly: (§1) Cytotoxicity against human A549 cells assessed as growth inhibition after 48 hrs by MTT assay. Format: cell-based. The note with it: a549, 48 h.
Data set [7] is described as follows: as §1. The note with it: A549 cells. Type of data set: cell-based.
Data set [8] in a line: Selectivity index, ratio of GI50 for human A549 cells to MIC for dormant phase Mycobacterium tuberculosis H37Ra ATCC 25177. Type of data set: toxicity, cell-based. The note with it: read-out: Selectivity Index.

For `Clc1ccc(Cn2cc(COc3ccc(Cl)cc3)nn2)cc1`, the GI50 at 48 h was greater than 100 µg/mL in data set [1], 17.4 µg/mL (≈ 52.1 µM) in data set [3] and greater than 100 µg/mL in data set [7]. For the same compound, the figures for the GI90 (in [1]; in [3]; in the data set with A549) were greater than 100 µg/mL, 89.7 µg/mL (≈ 268 µM) and greater than 100 µg/mL, respectively. The selectivity ratio is 2.1 in data set [2], greater than 12.2 in data set [5] and greater than 12.2 in data set [8]. The values for the IC50 in data set [4] and in data set [6] were 0.7 µg/mL (≈ 2.09 µM) and 26.1 µg/mL (≈ 78.1 µM), respectively. Further, the MIC in data set [4] is 8.2 µg/mL (≈ 24.5 µM).

Turning to `Cc1cc(OCc2cn(Cc3ccc(Cl)cc3)nn2)ccc1Cl`, the values for the GI50 at 48 h in data set [1], in data set [3] and in [7] were greater than 100 µg/mL, 31.2 µg/mL (≈ 89.6 µM) and greater than 100 µg/mL, respectively. For the same compound, the GI90 was greater than 100 µg/mL in data set [1], 88.1 µg/mL (≈ 253 µM) in data set [3] and greater than 100 µg/mL in the data set with A549. The selectivity ratio in data set [2] is 1.2; in [5] it was greater than 3.7; in data set [8], greater than 3.7. The values for the IC50 in data set [4] and in data set [6] were 0.2 µg/mL (≈ 0.574 µM) and 11.4 µg/mL (≈ 32.7 µM), respectively. Also, the minimal inhibitory concentration (MIC) in data set [4] is 26.9 µg/mL (≈ 77.2 µM).

As to `Clc1ccc(OCc2cn(Cc3cccc(Cl)c3)nn2)cc1`, the GI50 at 48 h is greater than 100 µg/mL in [1], 20.9 µg/mL (≈ 62.5 µM) in data set [3] and greater than 100 µg/mL in data set [7]. Also, the GI90 (in [1]; in data set [3]; in the data set with A549) was greater than 100 µg/mL throughout. Further, the values for the selectivity ratio in data set [2], in [5] and in data set [8] were 0.8, greater than 3.9 and greater than 3.9, respectively. In addition, the IC50 in data set [4] was 2.9 µg/mL (≈ 8.68 µM); in data set [6], 23.3 µg/mL (≈ 69.7 µM). Also, the MIC in [4] was found to be 25.8 µg/mL (≈ 77.2 µM).

In the case of `Cc1cc(OCc2cn(Cc3ccc([N+](=O)[O-])cc3)nn2)ccc1Cl`, the GI50 at 48 h in data set [1] is greater than 100 µg/mL; in data set [3], 27.9 µg/mL (≈ 77.8 µM); in [7], greater than 100 µg/mL. The GI90 in data set [1] is greater than 100 µg/mL; in [3], 84.3 µg/mL (≈ 235 µM); with A549, greater than 100 µg/mL. Besides, the selectivity ratio in data set [2] was 1; in data set [5], greater than 3.6; in data set [8], greater than 3.6. Besides, the concentration for half-maximal inhibition (IC50) in data set [4] worked out at 0.8 µg/mL (≈ 2.23 µM); in [6], 13.4 µg/mL (≈ 37.3 µM). This compound gave a minimal inhibitory concentration (MIC) in data set [4] of 28.2 µg/mL (≈ 78.6 µM).

For the compound `Clc1ccc(Cn2cc(COc3c(Cl)cc(Cl)cc3Cl)nn2)cc1`, the results for the GI50 at 48 h in data set [1], in data set [3] and in [7] were greater than 100 µg/mL, 25.1 µg/mL (≈ 62.3 µM) and greater than 100 µg/mL, respectively. Further, the GI90 (in data set [1]; in data set [3]; in the data set with A549) was greater than 100 µg/mL each time. The selectivity ratio in [2] was 3.2; in [5], greater than 12.9; in data set [8], greater than 12.9. In addition, the results for the IC50 in data set [4] and in data set [6] were 0.8 µg/mL (≈ 1.98 µM) and 27.2 µg/mL (≈ 67.5 µM), respectively. This compound also had an MIC in data set [4] of 7.7 µg/mL (≈ 19.1 µM).

With `Clc1ccc(OCc2cn(Cc3ccc(Br)cc3)nn2)cc1`, the GI50 at 48 h was greater than 100 µg/mL in data set [1], 52.9 µg/mL (≈ 140 µM) in [3] and greater than 100 µg/mL in [7]. In addition, the GI90 (in [1]; in data set [3]; with A549) was greater than 100 µg/mL in each case. For the same compound, the selectivity ratio in [2] was 9.2; in [5] it was greater than 17.3; in data set [8] it was greater than 17.3. The IC50 was determined as 0.5 µg/mL (≈ 1.32 µM) in data set [4] and 11 µg/mL (≈ 29.1 µM) in [6]. In addition, the MIC in data set [4] stood at 5.8 µg/mL (≈ 15.3 µM).

Take `Clc1cc(Cl)c(OCc2cn(Cc3ccc(Br)cc3)nn2)c(Cl)c1`: the GI50 at 48 h in data set [1] is greater than 100 µg/mL; in data set [3] it was 58.7 µg/mL (≈ 131 µM); in [7] it was greater than 100 µg/mL. For the same compound, the GI90 (in [1]; in data set [3]; with A549) was greater than 100 µg/mL each time. In addition, the values for the selectivity ratio in data set [2], in [5] and in [8] were 2.1, greater than 3.6 and greater than 3.6, respectively. For the same compound, the results for the IC50 in data set [4] and in data set [6] were 0.9 µg/mL (≈ 2.01 µM) and 14 µg/mL (≈ 31.3 µM), respectively. Further, in data set [4], the minimum inhibitory concentration (MIC) stood at 27.8 µg/mL (≈ 62.1 µM).
